Test results published in patent publication US20110039721A1, “METHOD FOR PREDICTION ABOUT CARCINOGENICITY OF SUBSTANCE IN RODENT” (Chemicals Evaluation and Research Institute, priority 2007, published 2011).

Tested on: mRNA expressed from the genes (A) to (D) in rat liver
Assay: Behavior of genes (mRNA expression level, oligo-DNA microarray) in rat liver after 28-day oral administration
Type: in vivo
Conditions: rat liver, oral once daily 28 days; for Behavior of gene caused by administration of chemical substance, Gene No. 4846 / Behavior of gene caused by administration of chemical substance, Gene No. 4218 / Behavior of gene caused by administration of chemical substance, Gene No. 2026 / Behavior of gene caused by administration of chemical substance, Gene No. 6182 / Behavior of gene caused by administration of chemical substance, Gene No. 5600: (A); for Behavior of gene caused by administration of chemical substance, Gene No. 4846: Unigene Rn.144554, defined direction +; for Behavior of gene caused by administration of chemical substance, Gene No. 4218: Unigene Rn.167075, defined direction +, significant = 1.5 times or more or 1/1.5 or less of control; for Behavior of gene caused by administration of chemical substance, Gene No. 2026: Unigene Rn.167075, defined direction −; for Behavior of gene caused by administration of chemical substance, Gene No. 6182: Unigene Rn.5834, defined direction +; for Behavior of gene caused by administration of chemical substance, Gene No. 5600: Unigene Rn.9836, defined direction +; for Behavior of gene caused by administration of chemical substance, Gene No. 1494 / Behavior of gene caused by administration of chemical substance, Gene No. 2045 / Behavior of gene caused by administration of chemical substance, Gene No. 2203: (B); for Behavior of gene caused by administration of chemical substance, Gene No. 1494: Unigene Rn.1430, defined direction −; for Behavior of gene caused by administration of chemical substance, Gene No. 2045: Unigene Rn.19329, defined direction +; for Behavior of gene caused by administration of chemical substance, Gene No. 2203: Unigene Rn.21240, defined direction +; for Behavior of gene caused by administration of chemical substance, Gene No. 533 / Behavior of gene caused by administration of chemical substance, Gene No. 725 / Behavior of gene caused by administration of chemical substance, Gene No. 1163 / Behavior of gene caused by administration of chemical substance, Gene No. 4973 / Behavior of gene caused by administration of chemical substance, Gene No. 4095 / Behavior of gene caused by administration of chemical substance, Gene No. 1334 / Behavior of gene caused by administration of chemical substance, Gene No. 6620 / Behavior of gene caused by administration of chemical substance, Gene No. 6303 / Behavior of gene caused by administration of chemical substance, Gene No. 5878 / Behavior of gene caused by administration of chemical substance, Gene No. 1131 / Behavior of gene caused by administration of chemical substance, Gene No. 1562 / Behavior of gene caused by administration of chemical substance, Gene No. 1741 / Behavior of gene caused by administration of chemical substance, Gene No. 893 / Behavior of gene caused by administration of chemical substance, Gene No. 6026 / Behavior of gene caused by administration of chemical substance, Gene No. 154 / Behavior of gene caused by administration of chemical substance, Gene No. 1993 / Behavior of gene caused by administration of chemical substance, Gene No. 813 / Behavior of gene caused by administration of chemical substance, Gene No. 2494 / Behavior of gene caused by administration of chemical substance, Gene No. 2546 / Behavior of gene caused by administration of chemical substance, Gene No. 3776 / Behavior of gene caused by administration of chemical substance, Gene No. 3929 / Behavior of gene caused by administration of chemical substance, Gene No. 1119 / Behavior of gene caused by administration of chemical substance, Gene No. 6742 / Behavior of gene caused by administration of chemical substance, Gene No. 5634: (C); for Behavior of gene caused by administration of chemical substance, Gene No. 533: Unigene Rn.106184, defined direction +; for Behavior of gene caused by administration of chemical substance, Gene No. 725: Unigene Rn.108075, defined direction −; for Behavior of gene caused by administration of chemical substance, Gene No. 1163: Unigene Rn.11766, defined direction +; for Behavior of gene caused by administration of chemical substance, Gene No. 4973: Unigene Rn.118529, defined direction −; for Behavior of gene caused by administration of chemical substance, Gene No. 4095: Unigene Rn.119024, defined direction −; for Behavior of gene caused by administration of chemical substance, Gene No. 1334 / Behavior of gene caused by administration of chemical substance, Gene No. 6620: Unigene Rn.120914, defined direction +; for Behavior of gene caused by administration of chemical substance, Gene No. 6303: Unigene Rn.123063, defined direction −; for Behavior of gene caused by administration of chemical substance, Gene No. 5878: Unigene Rn.143213, defined direction −; for Behavior of gene caused by administration of chemical substance, Gene No. 1131: Unigene Rn.144946, defined direction −; for Behavior of gene caused by administration of chemical substance, Gene No. 1562: Unigene Rn.14744, defined direction −; for Behavior of gene caused by administration of chemical substance, Gene No. 1741: Unigene Rn.1647, defined direction −; for Behavior of gene caused by administration of chemical substance, Gene No. 893: Unigene Rn.164817, defined direction +; for Behavior of gene caused by administration of chemical substance, Gene No. 6026: Unigene Rn.167685, defined direction −; for Behavior of gene caused by administration of chemical substance, Gene No. 154: Unigene Rn.185941, defined direction −; for Behavior of gene caused by administration of chemical substance, Gene No. 1993: Unigene Rn.18728, defined direction −; for Behavior of gene caused by administration of chemical substance, Gene No. 813: Unigene Rn.201760, defined direction +; for Behavior of gene caused by administration of chemical substance, Gene No. 2494: Unigene Rn.23969, defined direction +; for Behavior of gene caused by administration of chemical substance, Gene No. 2546: Unigene Rn.24561, defined direction −; for Behavior of gene caused by administration of chemical substance, Gene No. 3776: Unigene Rn.43232, defined direction −; for Behavior of gene caused by administration of chemical substance, Gene No. 3929: Unigene Rn.4620, defined direction +; for Behavior of gene caused by administration of chemical substance, Gene No. 1119: Unigene Rn.9757, defined direction +; for Behavior of gene caused by administration of chemical substance, Gene No. 6742: Unigene Rn.9779, defined direction +; for Behavior of gene caused by administration of chemical substance, Gene No. 5634: Unigene Rn.9862, defined direction −; for Behavior of gene caused by administration of chemical substance, Gene No. 5726: (D), Unigene Rn.9939, defined direction −
Method: A test solution was prepared by dissolving each of the carcinogens and the non-carcinogens shown in Tables 2 to 6 in the corresponding solvent shown in Tables 2 to 6. Each of the thus prepared test solutions and the solvents used for the preparation was administered by oral gavage to rats in each group. As the rats, male rats (F344 SPF rats) at 5 weeks of age obtained from Charles River Laboratories Japan, Inc. were used. The animals were divided into groups, each containing four individuals. The volume of the solvent administered to the vehicle control group was set to the same volume as that of the test solution administered to the carcinogen administration group or the non-carcinogen administration group. The administration of the test solution or the solvent was performed once daily for 28 days. Apiece was excised from the liver of each of the rats after a lapse of 28 days from the initiation of the administration, and the total RNA was extracted and purified.
The expression level of mRNA was compared between each of the chemical substance administration groups and the corresponding vehicle control group, and genes that satisfy the requirements described in (A) to (D) were selected, respectively.
The case where the expression level of mRNA in the carcinogen administration group or the non-carcinogen administration group is 1.5 times or more or 1/1.5 or less of the expression level of the corresponding mRNA expressed in the control group was determined to be significant. In this connection, the determination as to whether or not the change is significant was performed by taking into consideration the direction of increase or decrease in the expression level. In the case where the direction of increase or decrease is different as compared with the case where another carcinogen was administered, the change was determined to be not significant.

Row | SMILES | Behavior of gene caused by administration of chemical substance, Gene No. 4846 | Behavior of gene caused by administration of chemical substance, Gene No. 4218 | Behavior of gene caused by administration of chemical substance, Gene No. 2026 | Behavior of gene caused by administration of chemical substance, Gene No. 6182 | Behavior of gene caused by administration of chemical substance, Gene No. 5600 | Behavior of gene caused by administration of chemical substance, Gene No. 1494 | Behavior of gene caused by administration of chemical substance, Gene No. 2045 | Behavior of gene caused by administration of chemical substance, Gene No. 2203 | Behavior of gene caused by administration of chemical substance, Gene No. 533 | Behavior of gene caused by administration of chemical substance, Gene No. 725 | Behavior of gene caused by administration of chemical substance, Gene No. 1163 | Behavior of gene caused by administration of chemical substance, Gene No. 4973 | Behavior of gene caused by administration of chemical substance, Gene No. 4095 | Behavior of gene caused by administration of chemical substance, Gene No. 1334 | Behavior of gene caused by administration of chemical substance, Gene No. 6620 | Behavior of gene caused by administration of chemical substance, Gene No. 6303 | Behavior of gene caused by administration of chemical substance, Gene No. 5878 | Behavior of gene caused by administration of chemical substance, Gene No. 1131 | Behavior of gene caused by administration of chemical substance, Gene No. 1562 | Behavior of gene caused by administration of chemical substance, Gene No. 1741 | also measured
1 | C1COCCO1 [TS027, 1,4-Dioxane] | + | + | + | + | + | + | − | − | + | − | − | − | − | − | − | − | − | − | + | + | Behavior of gene caused by administration of chemical substance, Gene No. 893: −; Behavior of gene caused by administration of chemical substance, Gene No. 6026: −; Behavior of gene caused by administration of chemical substance, Gene No. 154: +; Behavior of gene caused by administration of chemical substance, Gene No. 1993: +; Behavior of gene caused by administration of chemical substance, Gene No. 813: +; Behavior of gene caused by administration of chemical substance, Gene No. 2494: −; Behavior of gene caused by administration of chemical substance, Gene No. 2546: −; Behavior of gene caused by administration of chemical substance, Gene No. 3776: −; Behavior of gene caused by administration of chemical substance, Gene No. 3929: −; Behavior of gene caused by administration of chemical substance, Gene No. 1119: +; Behavior of gene caused by administration of chemical substance, Gene No. 6742: +; Behavior of gene caused by administration of chemical substance, Gene No. 5634: −; Behavior of gene caused by administration of chemical substance, Gene No. 5726: −
2 | COC(N)=O [TS029, Methyl carbamate] | + | + | + | + | + | + | − | − | + | − | − | − | − | − | − | + | − | − | + | + | Behavior of gene caused by administration of chemical substance, Gene No. 893: −; Behavior of gene caused by administration of chemical substance, Gene No. 6026: −; Behavior of gene caused by administration of chemical substance, Gene No. 154: +; Behavior of gene caused by administration of chemical substance, Gene No. 1993: +; Behavior of gene caused by administration of chemical substance, Gene No. 813: −; Behavior of gene caused by administration of chemical substance, Gene No. 2494: −; Behavior of gene caused by administration of chemical substance, Gene No. 2546: −; Behavior of gene caused by administration of chemical substance, Gene No. 3776: +; Behavior of gene caused by administration of chemical substance, Gene No. 3929: −; Behavior of gene caused by administration of chemical substance, Gene No. 1119: −; Behavior of gene caused by administration of chemical substance, Gene No. 6742: −; Behavior of gene caused by administration of chemical substance, Gene No. 5634: −; Behavior of gene caused by administration of chemical substance, Gene No. 5726: −
